Laboratory results from ChEMBL document CHEMBL1201862, “PubChem BioAssay data set” (2004).
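All cell lines were grown in 96-well plates and treated with compound for 48 hours. Here, GI50 denotes the concentration required for 50% inhibition of growth.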 The source made the active and inactive calls. Rule as the data show it: active = GI50 up to about 1.1 µM and inactive = higher.

Experiments:
Experiment in all cases: NCI-60 cell line screen, 48 h
[1] = test system: HOP-18
[2] = test system: K562
[3] = test system: OVCAR-8
[4] = test system: UACC-62
[5] = test system: DMS-273
[6] = test system: A498
[7] = test system: OVCAR-4
[8] = test system: RPMI-8226
[9] = test system: SK-MEL-28
[10] = test system: NCI-H522
[11] = test system: HCC 2998
[12] = test system: SK-OV-3
[13] = test system: XF498
[14] = test system: SNB-75
[15] = test system: UO-31
[16] = test system: NCI-H460
[17] = test system: SK-MEL-2
[18] = test system: KM-20L2
[19] = test system: Malme-3M
[20] = test system: SF-539
[21] = test system: RXF 393
[22] = test system: A549
[23] = test system: MCF7
[24] = test system: DLD-1
[25] = test system: U-251
[26] = test system: HOP-92
[27] = test system: SN12C
[28] = test system: SK-MEL-5
[29] = test system: DMS-114
[30] = test system: KM12
[31] = test system: HL-60
[32] = test system: HOP-62
[33] = test system: SF-268
[34] = test system: NCI-H23
[35] = test system: CAKI-1
[36] = test system: NCI/ADR-RES
[37] = test system: SF-295
[38] = test system: HCT-116
[39] = test system: EKVX
[40] = test system: HT-29
[41] = test system: OVCAR-5
[42] = test system: COLO 205
[43] = test system: NCI-H226
[44] = test system: M19-MEL
[45] = test system: LOX IMVI
[46] = test system: OVCAR-3
[47] = test system: SNB-19
[48] = test system: UACC-257
[49] = test system: SW-620
[50] = test system: CCRF-CEM
[51] = test system: MOLT-4
[52] = test system: IGROV-1
[53] = test system: HCT-15
[54] = test system: SNB-78
[55] = test system: DU-145
[56] = test system: SR
[57] = test system: BT-549
[58] = test system: ACHN
[59] = test system: PC-3
[60] = test system: Hs-578T
[61] = test system: MDA-MB-435
[62] = test system: M14
[63] = test system: T47D
[64] = test system: 786-0
[65] = test system: MDA-MB-231
[66] = test system: TK-10
[67] = test system: MDA-N

## OCC1OC(n2cnc3c2NC=NC[C@H]3O)C(O)C1O (stereo partly specified)
[1]
  GI50: 71.3 µM (inactive)
[2]
  GI50: 249 µM (inactive)
[3]
  GI50: > 450 µM (inactive)
[4]
  GI50: > 450 µM (inactive)
[5]
  GI50: 303 µM (inactive)
[6]
  GI50: 208 µM (inactive)
[7]
  GI50: > 450 µM (inactive)
[8]
  GI50: 201 µM (inactive)
[9]
  GI50: > 450 µM (inactive)
[10]
  GI50: 312 µM (inactive)
[11]
  GI50: > 330 µM (inactive)
[12]
  GI50: 234 µM (inactive)
[13]
  GI50: > 274 µM (inactive)
[14]
  GI50: 412 µM (inactive)
[15]
  GI50: 282 µM (inactive)
[16]
  GI50: 164 µM (inactive)
[17]
  GI50: 339 µM (inactive)
[18]
  GI50: 444 µM (inactive)
[19]
  GI50: > 355 µM (inactive)
[20]
  GI50: > 450 µM (inactive)
[21]
  GI50: 238 µM (inactive)
[22]
  GI50: 396 µM (inactive)
[23]
  GI50: > 450 µM (inactive)
[24]
  GI50: 300 µM (inactive)
[25]
  GI50: > 450 µM (inactive)
[26]
  GI50: > 192 µM (inactive)
[27]
  GI50: 293 µM (inactive)
[28]
  GI50: > 71.3 µM (inactive)
[29]
  GI50: > 450 µM (inactive)
[30]
  GI50: > 450 µM (inactive)
[31]
  GI50: 86.7 µM (inactive)
[32]
  GI50: > 337 µM (inactive)
[33]
  GI50: > 384 µM (inactive)
[34]
  GI50: 445 µM (inactive)
[35]
  GI50: 226 µM (inactive)
[36]
  GI50: > 436 µM (inactive)
[37]
  GI50: > 450 µM (inactive)
[38]
  GI50: 260 µM (inactive)
[39]
  GI50: > 450 µM (inactive)
[40]
  GI50: > 450 µM (inactive)
[41]
  GI50: > 450 µM (inactive)
[42]
  GI50: > 450 µM (inactive)
[43]
  GI50: 173 µM (inactive)
[44]
  GI50: > 450 µM (inactive)
[45]
  GI50: 170 µM (inactive)
[46]
  GI50: > 450 µM (inactive)
[47]
  GI50: > 450 µM (inactive)
[48]
  GI50: > 450 µM (inactive)
[49]
  GI50: 317 µM (inactive)
[50]
  GI50: 172 µM (inactive)
[51]
  GI50: 318 µM (inactive)
[52]
  GI50: > 450 µM (inactive)
[53]
  GI50: 205 µM
[54]
  GI50: > 450 µM (inactive)

## C[C@]12CC[C@H](OC3OC(CO)C(O)C(O)C3O)C[C@H]1CC[C@@H]1[C@@H]2CC[C@]2(C)[C@@H](C3=CCOC3=O)CC[C@]12O (stereo partly specified) [ACTODIGIN]
[1]
  GI50: 50 µM (inactive)
[55]
  GI50: > 100 µM (inactive)
[56]
  GI50: 2.96 µM (inactive)
[2]
  GI50: 21.5 µM (inactive)
[57]
  GI50: > 100 µM (inactive)
[4]
  GI50: 6.64 µM (inactive)
[58]
  GI50: 14.5 µM (inactive)
[5]
  GI50: 1.97 µM (inactive)
[6]
  GI50: 5.48 µM (inactive)
[7]
  GI50: 41 µM (inactive)
[59]
  GI50: > 100 µM (inactive)
[9]
  GI50: 22.5 µM (inactive)
[60]
  GI50: 40.9 µM (inactive)
[10]
  GI50: 16.8 µM (inactive)
[11]
  GI50: 26.8 µM (inactive)
[12]
  GI50: > 50 µM (inactive)
[13]
  GI50: 1.44 µM (inactive)
[61]
  GI50: > 100 µM (inactive)
[14]
  GI50: 6.84 µM (inactive)
[15]
  GI50: 40.3 µM (inactive)
[17]
  GI50: 30.9 µM (inactive)
[18]
  GI50: 3.55 µM (inactive)
[19]
  GI50: 2.09 µM (inactive)
[20]
  GI50: 0.447 µM (active)
[21]
  GI50: 8.49 µM (inactive)
[62]
  GI50: > 100 µM (inactive)
[63]
  GI50: > 100 µM (inactive)
[22]
  GI50: 15.7 µM (inactive)
[64]
  GI50: > 100 µM (inactive)
[23]
  GI50: 10.4 µM (inactive)
[24]
  GI50: 39.7 µM (inactive)
[25]
  GI50: 4.73 µM (inactive)
[26]
  GI50: 2.24 µM (inactive)
[27]
  GI50: 20.1 µM (inactive)
[28]
  GI50: 7.52 µM (inactive)
[29]
  GI50: 10.2 µM (inactive)
[30]
  GI50: 19.2 µM (inactive)
[31]
  GI50: 4.51 µM (inactive)
[32]
  GI50: 0.787 µM (active)
[33]
  GI50: 8.2 µM (inactive)
[34]
  GI50: 15.8 µM (inactive)
[36]
  GI50: 24.4 µM (inactive)
[37]
  GI50: 1.45 µM (inactive)
[38]
  GI50: 15.7 µM (inactive)
[39]
  GI50: 16.5 µM (inactive)
[40]
  GI50: 41.1 µM (inactive)
[41]
  GI50: > 50 µM (inactive)
[42]
  GI50: 16.9 µM (inactive)
[65]
  GI50: > 100 µM (inactive)
[44]
  GI50: 11.7 µM (inactive)
[45]
  GI50: 0.495 µM (active)
[49]
  GI50: 18.6 µM (inactive)
[66]
  GI50: > 100 µM (inactive)
[52]
  GI50: 28.4 µM (inactive)
[53]
  GI50: 22.7 µM
[54]
  GI50: 26.5 µM (inactive)
[67]
  GI50: > 100 µM (inactive)
